Structures can show the parent of a compound that is named as a salt.
How the values were obtained:
[1] = molecular target: T1, endogenous cellular BACE2 (Rattus norvegicus, UniProt Q6IE75); assay: Assay for BACE inhibition by measuring cellular TMEM27 cleavage; format: cell-based; conditions: INS-TMEM27 (INS1e-derived) cells, shed human TMEM27 in supernatant by ELISA
T1 construct: endogenous cellular BACE2 in the Ins1e rat cell line; endogenous in cells; host or cells: INS-TMEM27 (INS1e-derived rat insulinoma cell line with doxycycline-inducible full-length human TMEM27)
T1 sequence (Q6IE75 63-514): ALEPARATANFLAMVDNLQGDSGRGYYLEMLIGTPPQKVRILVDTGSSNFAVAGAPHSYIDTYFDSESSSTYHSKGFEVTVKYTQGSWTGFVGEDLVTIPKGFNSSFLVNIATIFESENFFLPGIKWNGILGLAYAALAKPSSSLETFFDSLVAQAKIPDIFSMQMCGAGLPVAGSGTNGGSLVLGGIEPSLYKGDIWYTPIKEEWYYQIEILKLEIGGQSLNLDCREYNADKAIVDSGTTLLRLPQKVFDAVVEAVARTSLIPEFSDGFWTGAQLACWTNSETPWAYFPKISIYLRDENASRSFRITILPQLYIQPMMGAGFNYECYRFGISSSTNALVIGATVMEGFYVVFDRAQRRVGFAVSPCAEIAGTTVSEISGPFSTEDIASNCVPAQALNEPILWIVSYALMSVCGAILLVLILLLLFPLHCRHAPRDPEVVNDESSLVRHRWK
Description: Assay for BACE Inhibition by Measuring Cellular TMEM27 Cleavage:
The assay uses the principle of inhibition of human TMEM27 cleavage by endogenous cellular BACE2 in the Ins1e rat cell line and shedding from the cell surface into the culture medium, followed by detection in an ELISA assay. Inhibition of BACE2 prevents the cleavage and shedding in a dose-dependent manner.
The stable cell line “INS-TMEM27” represents an INS1e-derived cell line with inducible expression (using the TetOn system) of full-length hTMEM27 in a doxycycline-dependent manner. The cells are cultured throughout the experiment in RPMI1640+ Glutamax (Invitrogen) Penicillin/Streptomycin, 10% Fetal bovine serum, […], […], 100 micrograms/ml G418 and 100 microgram/ml hygromycin and are grown inadherent culture at 37° C. in a standard CO2 cell culture incubator.
INS-TMEM27 cells are seeded in 96-well plates. After 2 days in culture, BACE2 inhibitor is added in a range of concentrations as required by the assay and after a further two hours, doxycycline is added to a final concentration of 500 ng/ml. The cells are incubated for a further 46 hours and the supernatant harvested for detection of shed TMEM27.
An ELISA assay (using a pair of mouse anti-human-TMEM27 antibodies, raised against the extracellular domain of TMEM27) is used for detection of TMEM27 in the culture medium. An EC50 for BACE2 inhibition is calculated using the ELISA readout for each inhibitor concentration with standard curve-fitting software such as XLFit for the Excel spreadsheet program.

[2] = system: Aβ40; assay: Cellular Aβ-lowering assay; format: cell-based; conditions: HEK293 cells stably expressing human APP695, Aβ40 in supernatant by ELISA after 18-20 hrs; read-out: Cellular assay Abeta40 IC50
Procedure: Cellular Aβ-Lowering Assay:
Human HEK293 cells which are stably transfected with a vector expressing a cDNA of the human APP wt gene (APP695) were used to assess the potency of the compounds in a cellular assay. The cells were seeded in 96-well microtiter plates in cell culture medium (Iscove, plus 10% (v/v) fetal bovine serum, glutamine, penicillin/streptomycin) to about 80% confluence and the compounds were added at a 10× concentration in 1/10 volume of medium without FCS containing 8% DMSO (final concentration of DMSO was kept at 0.8% v/v). After 18-20 hrs incubation at 37° C. and 5% CO2 in a humidified incubator the culture supernatant was harvested for the determination of Aβ40 concentrations. 96well ELISA plates (e.g., Nunc MaxiSorb) were coated with monoclonal antibody which specifically recognize the C-terminal end of Aβ40 (Brockhaus et al., NeuroReport 9, 1481-1486; 1998). After blocking of non-specific binding sites with e.g. 1% BSA and washing, the culture supernatants were added in suitable dilutions together with a horseradish peroxidase-coupled Aβ detection antibody (e.g., antibody 4G8, Senetek, Maryland Heights, Mo.) and incubated for 5 to 7 hrs. Subsequently the wells of the microtiter plate were washed extensively with Tris-buffered saline containing 0.05% Tween 20 and the assay was developed with tetramethylbenzidine/H2O2 in citric acid buffer. After stopping the reaction with one volume 1 N H2SO4 the reaction was measured in an ELISA reader at 450 nm wavelength. The concentrations of Aβ in the culture supernatants were calculated from a standard curve obtained with known amounts of pure Aβ peptide.

NC1=N[C@@]2(c3cc(NC(=O)c4ccc(OCC(F)(F)F)cn4)ccc3F)C[C@H]2COC1 (racemic) [Example 2, 5-(2,2,2-Trifluoro-ethoxy)-pyridine-2-carboxylic acid [3-((1SR,7RS)-3-amino-5-oxa-2-aza-bicyclo[5.1.0]oct-2-en-1-yl)-4-fluoro-phenyl]-amide]
IC50 [1]: > 10000 nM | IC50 [2]: 2200 nM

NC1=N[C@@]2(c3cccc(NC(=O)c4ccc(Cl)cn4)c3)C[C@H]2COC1 (racemic) [Example 3, 5-Chloro-pyridine-2-carboxylic acid [3-((1SR,7RS)-3-amino-5-oxa-2-aza-bicyclo[5.1.0]oct-2-en-1-yl)-phenyl]-amide]
IC50 [1]: 245 nM | IC50 [2]: 34 nM

NC1=N[C@@]2(c3cccc(NC(=O)c4ccc(OCC(F)(F)F)cn4)c3)C[C@H]2COC1 (racemic) [Example 4, 5-(2,2,2-Trifluoro-ethoxy)-pyridine-2-carboxylic acid [3-((1SR,7RS)-3-amino-5-oxa-2-aza-bicyclo[5.1.0]oct-2-en-1-yl)-phenyl]-amide]
IC50 [1]: 8900 nM | IC50 [2]: 630 nM

NC1=N[C@@]2(c3cccc(NC(=O)c4ncc(C(F)(F)F)cc4Cl)c3)C[C@H]2COC1 (stereo in doubt) [Example 51, 3-Chloro-5-trifluoromethyl-pyridine-2-carboxylic acid [3-((R)-3-amino-5-oxa-2-aza-bicyclo[5.1.0]oct-2-en-1-yl)-phenyl]-amide; salt with trifluoroacetic acid]
IC50 [1]: 8590 nM | IC50 [2]: 100 nM

C[C@@]1(c2cc(NC(=O)c3ccc(Cl)cn3)ccc2F)CCOCC(N)=N1 [Example 5, 5-Chloro-pyridine-2-carboxylic acid [3-((S)-3-amino-5-methyl-2,5,6,7-tetrahydro-[1,4]oxazepin-5-yl)-4-fluoro-phenyl]-amide formate]
IC50 [1]: 0.885 nM | IC50 [2]: 0.9 nM

C[C@@]1(c2cc(NC(=O)c3ncccc3F)ccc2F)CCOCC(N)=N1 [Example 6, 3-Fluoro-pyridine-2-carboxylic acid [3-((S)-3-amino-5-methyl-2,5,6,7-tetrahydro-[1,4]oxazepin-5-yl)-4-fluoro-phenyl]-amide formate]
IC50 [1]: 3.6 nM | IC50 [2]: 36 nM

C[C@@]1(c2cc(NC(=O)c3ccccn3)ccc2F)CCOCC(N)=N1 [Example 7, Pyridine-2-carboxylic acid [3-((S)-3-amino-5-methyl-2,5,6,7-tetrahydro-[1,4]oxazepin-5-yl)-4-fluoro-phenyl]-amide]
IC50 [1]: 1.45 nM | IC50 [2]: 16 nM

C[C@@]1(c2cc(NC(=O)c3ncc(Cl)cc3Cl)ccc2F)CCOCC(N)=N1 [Example 8, 3,5-Dichloro-pyridine-2-carboxylic acid [3-((S)-3-amino-5-methyl-2,5,6,7-tetrahydro-[1,4]oxazepin-5-yl)-4-fluoro-phenyl]-amide]
IC50 [1]: 1.8 nM | IC50 [2]: 2.5 nM

C[C@@]1(c2cc(NC(=O)c3ccc(F)cn3)ccc2F)CCOCC(N)=N1 [Example 9]
IC50 [1]: 10 nM | IC50 [2]: 1.6 nM

CC1(C)C[C@@](C)(c2cc(NC(=O)c3ccc(Cl)cn3)ccc2F)N=C(N)CO1 [Example 10, 5-Chloro-pyridine-2-carboxylic acid [3-((S)-3-amino-5,7,7-trimethyl-2,5,6,7-tetrahydro-[1,4]oxazepin-5-yl)-4-fluoro-phenyl]-amide]
IC50 [1]: 1.6 nM | IC50 [2]: 1.1 nM

CC1(C)C[C@@](C)(c2cc(NC(=O)c3ccc(OC(F)F)cn3)ccc2F)N=C(N)CO1 [Example 11, 5-Difluoromethoxy-pyridine-2-carboxylic acid [3-((S)-3-amino-5,7,7-trimethyl-2,5,6,7-tetrahydro-[1,4]oxazepin-5-yl)-4-fluoro-phenyl]-amide]
IC50 [1]: 2 nM | IC50 [2]: 2.1 nM

C[C@@]1(c2cc(NC(=O)c3ccc(OCC(F)(F)F)cn3)ccc2F)CCOCC(N)=N1 [Example 12, 5-(2,2,2-Trifluoro-ethoxy)-pyridine-2-carboxylic acid [3-((S)-3-amino-5-methyl-2,5,6,7-tetrahydro-[1,4]oxazepin-5-yl)-4-fluoro-phenyl]-amide]
IC50 [1]: 120 nM | IC50 [2]: 9 nM

CC[C@@]1(c2cc(NC(=O)c3ccc(F)cn3)ccc2F)CCOCC(N)=N1 [Example 13, 5-Fluoro-pyridine-2-carboxylic acid [3-((S)-3-amino-5-ethyl-2,5,6,7-tetrahydro-[1,4]oxazepin-5-yl)-4-fluoro-phenyl]-amide]
IC50 [1]: 44 nM | IC50 [2]: 250 nM

CC[C@@]1(c2cc(NC(=O)c3ccc(Cl)cn3)ccc2F)CCOCC(N)=N1 [Example 14, 5-Chloro-pyridine-2-carboxylic acid [3-((S)-3-amino-5-ethyl-2,5,6,7-tetrahydro-[1,4]oxazepin-5-yl)-4-fluoro-phenyl]-amide]
IC50 [1]: 69.5 nM | IC50 [2]: 93 nM

CC[C@@]1(c2cc(NC(=O)c3ncc(Cl)cc3Cl)ccc2F)CCOCC(N)=N1 [Example 15, 3,5-Dichloro-pyridine-2-carboxylic acid [3-((S)-3-amino-5-ethyl-2,5,6,7-tetrahydro-[1,4]oxazepin-5-yl)-4-fluoro-phenyl]-amide]
IC50 [1]: 38 nM | IC50 [2]: 880 nM

C[C@@]1(c2cc(NC(=O)c3ncc(C(F)(F)F)cc3Cl)ccc2F)CCOCC(N)=N1 [Example 16, 3-Chloro-5-trifluoromethyl-pyridine-2-carboxylic acid [3-((S)-3-amino-5-methyl-2,5,6,7-tetrahydro-[1,4]oxazepin-5-yl)-4-fluoro-phenyl]-amide]
IC50 [1]: 13.5 nM | IC50 [2]: 14 nM

C[C@@]1(c2cc(NC(=O)C3(C(F)(F)F)CC3)ccc2F)CCOCC(N)=N1 [Example 17, 1-Trifluoromethyl-cyclopropanecarboxylic acid [3-((S)-3-amino-5-methyl-2,5,6,7-tetrahydro-[1,4]oxazepin-5-yl)-4-fluoro-phenyl]-amide]
IC50 [1]: 400 nM | IC50 [2]: 920 nM

CC1(C)C[C@@](C)(c2cc(NC(=O)c3ccc(OCC(F)(F)F)cn3)ccc2F)N=C(N)CO1 [Example 18, 5-(2,2,2-Trifluoro-ethoxy)-pyridine-2-carboxylic acid [3-((S)-3-amino-5,7,7-trimethyl-2,5,6,7-tetrahydro-[1,4]oxazepin-5-yl)-4-fluoro-phenyl]-amide]
IC50 [1]: 120 nM | IC50 [2]: 22 nM

CC1(C)C[C@@](C)(c2cc(NC(=O)C3CC3(F)F)ccc2F)N=C(N)CO1 (stereo partly drawn) [Example 19, 2,2-Difluoro-cyclopropanecarboxylic acid [3-((S)-3-amino-5,7,7-trimethyl-2,5,6,7-tetrahydro-[1,4]oxazepin-5-yl)-4-fluoro-phenyl]-amide]
IC50 [1]: 56 nM | IC50 [2]: 440 nM

C[C@]1(c2cc(NC(=O)c3ccc(Cl)cn3)ccc2F)N=C(N)COCC1(F)F [Example 26, (R)-N-(3-(3-amino-6,6-difluoro-5-methyl-2,5,6,7-tetrahydro-1,4-oxazepin-5-yl)-4-fluorophenyl)-5-chloropicolinamide]
IC50 [2]: 1.3 nM

C[C@@]1(c2cc(NC(=O)c3ccc(Cl)cn3)ccc2F)C[C@@H](c2ccccc2)OCC(N)=N1 [Example 69]
IC50 [2]: 5070 nM

Source: patent US8673894B2 (Hoffmann-La Roche Inc., priority 2010, dated 2014)
